This is an account of results in PubChem BioAssay AID270 (DTP/NCI, 2004).

The test system of this experiment is BDF1 mice, s.c. Lewis lung carcinoma, T/C %. Briefly: NCI In Vivo Anticancer Drug Screen. Data for tumor model Lewis Lung Carcinoma (subcutaneous) in B6D2F1 (BDF1) mice. The gist of the method: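 Readout: survival or tumor size, expressed as treated (T) over vehicle control (C). Transplantable tumor implanted in mice; compound given to the treated group.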
The mark [1] stands for this setting: endpoint: mean tumor weight, dose: 25.0 mg/kg/injection, schedule: Q01DX011 (ip), vehicle: saline, higher = larger tumour.
[2] abbreviates: endpoint: mean tumor weight, dose: 50.0 mg/kg/injection, schedule: Q01DX011 (ip), vehicle: saline, higher = larger tumour.

Several values for one entry are separate records, joined by “and”; a condition that tells them apart may be missing. Equal entries are not always repeated. Inconclusive results are not listed.

With `COC1=NCN=C2SC=C(N)N=C12`, the T/C is 107 % of control (endpoint: median survival time, dose: 12.5 mg/kg/injection, schedule: Q01DX009 (ip), vehicle: saline, higher = longer survival); 122 % of control (endpoint: median survival time, dose: 25.0 mg/kg/injection, schedule: Q01DX009 (ip), vehicle: saline, higher = longer survival); 110 % of control (endpoint: median survival time, dose: 50.0 mg/kg/injection, schedule: Q01DX009 (ip), vehicle: saline, higher = longer survival).

In the case of `CO[C@@H]1[C@@H](OC2OC(C)C(OC3CC(C)(O)C(OC(=O)CC(C)C)C(C)O3)C(N(C)C)C2O)[C@@H](CC=O)C[C@@H](C)C(=O)/C=C/C2O[C@H]2C[C@@H](C)OC(=O)C[C@H]1OC(C)=O` (stereo partly drawn), the T/C reads like this: (endpoint: mean tumor weight, dose: 37.5 mg/kg/injection, schedule: Q01DX011 (ip), vehicle: other, higher = larger tumour) 98 % of control; (endpoint: mean tumor weight, dose: 37.5 mg/kg/injection, schedule: Q01DX011 (ip), vehicle: saline, higher = larger tumour) 83 % of control; (endpoint: mean tumor weight, dose: 75.0 mg/kg/injection, schedule: Q01DX011 (ip), vehicle: other, higher = larger tumour) 76 % of control; (endpoint: mean tumor weight, dose: 150.0 mg/kg/injection, schedule: Q01DX011 (ip), vehicle: other, higher = larger tumour) 47 % of control; (endpoint: mean tumor weight, dose: 150.0 mg/kg/injection, schedule: Q01DX011 (ip), vehicle: saline, higher = larger tumour) 63 % of control and 81 % of control; (endpoint: mean tumor weight, dose: 300.0 mg/kg/injection, schedule: Q01DX011 (ip), vehicle: other, higher = larger tumour) 15 % of control. Also, the T/C (endpoint: mean tumor weight, dose: 300.0 mg/kg/injection, schedule: Q01DX011 (ip), vehicle: saline, higher = larger tumour) is 44 % of control and 48 % of control.

For the compound `Nc1nc(N)c2nc(CN(CCO)c3ccc(C(=O)NC(CCC(=O)O)C(=O)O)cc3)cnc2n1` (stereo not drawn), the T/C (endpoint: median survival time, dose: 0.25 mg/kg/injection, schedule: Q01DX009 (ip), vehicle: Klucel (hydroxypropylcellulose) (HPC), higher = longer survival) was 96 % of control; the T/C (endpoint: median survival time, dose: 0.5 mg/kg/injection, schedule: Q01DX009 (ip), vehicle: Klucel (hydroxypropylcellulose) (HPC), higher = longer survival) is 107 % of control; the T/C (endpoint: median survival time, dose: 1.0 mg/kg/injection, schedule: Q01DX009 (ip), vehicle: Klucel (hydroxypropylcellulose) (HPC), higher = longer survival) was 108 % of control; the T/C (endpoint: median survival time, dose: 2.0 mg/kg/injection, schedule: Q01DX009 (ip), vehicle: Klucel (hydroxypropylcellulose) (HPC), higher = longer survival) was 89 % of control.

For the compound `CCc1c(CC(=O)O)c2cc(C)ccc2n1Cc1ccc(Cl)cc1`, the T/C was 72 % of control (endpoint: mean tumor weight, dose: 12.5 mg/kg/injection, schedule: Q01DX011 (ip), vehicle: saline, higher = larger tumour); 104 % of control under setting [1]; 70 % of control under setting [2].

For the compound `CNC(=S)N/N=C/c1ccc([N+](=O)[O-])s1`, the T/C (endpoint: median survival time, dose: 25.0 mg/kg/injection, schedule: Q01DX009 (ip), vehicle: saline with Tween-80, higher = longer survival) is 121 % of control.

As to `CC(=O)NC1=C(N2CC2)C(=O)C(NC(C)=O)=C(N2CC2)C1=O`, the T/C (endpoint: median survival time, dose: 0.12 mg/kg/injection, schedule: Q01DX009 (ip), vehicle: saline with Tween-80, higher = longer survival) is 105 % of control and 111 % of control; the T/C (endpoint: median survival time, dose: 0.25 mg/kg/injection, schedule: Q01DX005 (ip), vehicle: saline with Tween-80, higher = longer survival) was 102 % of control and 119 % of control; the T/C (endpoint: median survival time, dose: 0.25 mg/kg/injection, schedule: Q01DX009 (ip), vehicle: saline with Tween-80, higher = longer survival) was 102 % of control and 112 % of control; the T/C (endpoint: median survival time, dose: 0.5 mg/kg/injection, schedule: Q01DX005 (ip), vehicle: saline with Tween-80, higher = longer survival) was 98 % of control and 109 % of control; the T/C (endpoint: median survival time, dose: 0.5 mg/kg/injection, schedule: Q01DX009 (ip), vehicle: saline with Tween-80, higher = longer survival) is 87 % of control and 105 % of control; the T/C (endpoint: median survival time, dose: 1.0 mg/kg/injection, schedule: Q01DX005 (ip), vehicle: saline with Tween-80, higher = longer survival) was 115 % of control. Moreover, the T/C is 123 % of control (endpoint: median survival time, dose: 1.0 mg/kg/injection, schedule: Q01DX009 (ip), vehicle: saline with Tween-80, higher = longer survival) and 94 % of control (endpoint: median survival time, dose: 2.0 mg/kg/injection, schedule: Q01DX005 (ip), vehicle: saline with Tween-80, higher = longer survival).

`COc1cccc(/C=C/[N+](=O)[O-])c1`: the T/C (endpoint: median survival time, dose: 20.0 mg/kg/injection, schedule: Q01DX009 (ip), vehicle: saline with Tween-80, higher = longer survival) was 104 % of control.

Take `Nc1ccc2ccccc2c1N=Nc1ccccc1`: the T/C was 105 % of control (endpoint: mean tumor weight, dose: 500.0 mg/kg/injection, schedule: Q01DX011 (ip), vehicle: other, higher = larger tumour); 104 % of control (endpoint: median survival time, dose: 50.0 mg/kg/injection, schedule: Q01DX009 (ip), vehicle: Klucel (hydroxypropylcellulose) (HPC), higher = longer survival); 104 % of control (endpoint: median survival time, dose: 100.0 mg/kg/injection, schedule: Q01DX009 (ip), vehicle: Klucel (hydroxypropylcellulose) (HPC), higher = longer survival); 98 % of control (endpoint: median survival time, dose: 200.0 mg/kg/injection, schedule: Q01DX009 (ip), vehicle: Klucel (hydroxypropylcellulose) (HPC), higher = longer survival); 95 % of control (endpoint: median survival time, dose: 400.0 mg/kg/injection, schedule: Q01DX009 (ip), vehicle: Klucel (hydroxypropylcellulose) (HPC), higher = longer survival).

Consider `CCCCCCCCCCCCCCCC(=O)OCC1OC(n2ccc(N)nc2=O)C(O)C1O` (stereo not drawn), for which the T/C is 54 % of control (endpoint: median tumor weight (est.), dose: 12.0 mg/kg/injection, schedule: Q01DX015 (ip), vehicle: saline with Tween-80, higher = larger tumour); 66 % of control (endpoint: median tumor weight (est.), dose: 18.0 mg/kg/injection, schedule: Q01DX015 (ip), vehicle: saline with Tween-80, higher = larger tumour); 59 % of control (endpoint: median tumor weight (est.), dose: 27.0 mg/kg/injection, schedule: Q01DX015 (ip), vehicle: saline with Tween-80, higher = larger tumour).

Consider `NC(=O)n1cccn1`, for which the T/C was 76 % of control under setting [1]; 88 % of control (endpoint: mean tumor weight, dose: 25.0 mg/kg/injection, schedule: Q01DX011 (ip), vehicle: water, higher = larger tumour); 61 % of control under setting [2]; 61 % of control (endpoint: mean tumor weight, dose: 50.0 mg/kg/injection, schedule: Q01DX011 (ip), vehicle: water, higher = larger tumour); 49 % of control (endpoint: mean tumor weight, dose: 100.0 mg/kg/injection, schedule: Q01DX011 (ip), vehicle: saline, higher = larger tumour); 39 % of control (endpoint: mean tumor weight, dose: 100.0 mg/kg/injection, schedule: Q01DX011 (ip), vehicle: water, higher = larger tumour).

On to `c1ccc(OP(Oc2ccccc2)Oc2ccccc2)cc1`, for which the T/C by setting is: (endpoint: mean tumor weight, dose: 37.0 mg/kg/injection, schedule: Q01DX011 (ip), vehicle: other, higher = larger tumour) 110 % of control; (endpoint: mean tumor weight, dose: 55.0 mg/kg/injection, schedule: Q01DX011 (ip), vehicle: other, higher = larger tumour) 103 % of control; (endpoint: mean tumor weight, dose: 83.0 mg/kg/injection, schedule: Q01DX011 (ip), vehicle: other, higher = larger tumour) 91 % of control; (endpoint: mean tumor weight, dose: 125.0 mg/kg/injection, schedule: Q01DX011 (ip), vehicle: other, higher = larger tumour) 79 % of control.

Regarding `Cc1cc(O)c2cc3c(O)c(O)ccc3cc2c1`, the T/C (endpoint: mean tumor weight, dose: 0.25 mg/kg/injection, schedule: Q01DX011 (ip), vehicle: saline, higher = larger tumour) is 86 % of control; the T/C (endpoint: mean tumor weight, dose: 0.5 mg/kg/injection, schedule: Q01DX011 (ip), vehicle: saline, higher = larger tumour) was 116 % of control; the T/C (endpoint: mean tumor weight, dose: 1.0 mg/kg/injection, schedule: Q01DX011 (ip), vehicle: saline, higher = larger tumour) is 62 % of control; the T/C (endpoint: mean tumor weight, dose: 2.0 mg/kg/injection, schedule: Q01DX011 (ip), vehicle: saline, higher = larger tumour) is 31 % of control and 52 % of control; the T/C (endpoint: mean tumor weight, dose: 4.0 mg/kg/injection, schedule: Q01DX011 (ip), vehicle: saline, higher = larger tumour) was 36 % of control.

For `COc1ccc(CC2C(=O)NC(C)C(=O)N(C)C3Cc4ccc(cc4)Oc4cc(ccc4O)CC(C(=O)NC(C)C(=O)NC(C)C(=O)N2C)N(C)C3=O)cc1` (stereo not drawn), the T/C was 103 % of control (endpoint: median survival time, dose: 1.0 mg/kg/injection, schedule: Q01DX009 (ip), vehicle: saline, higher = longer survival) and 111 % of control (endpoint: median survival time, dose: 2.0 mg/kg/injection, schedule: Q01DX009 (ip), vehicle: saline, higher = longer survival).

Take `Nc1n[nH]c(N)n1`: the T/C (endpoint: median survival time, dose: 100.0 mg/kg/injection, schedule: Q01DX009 (ip), vehicle: saline with Tween-80, higher = longer survival) is 113 % of control; the T/C (endpoint: median survival time, dose: 200.0 mg/kg/injection, schedule: Q01DX009 (ip), vehicle: saline with Tween-80, higher = longer survival) was 102 % of control; the T/C (endpoint: median survival time, dose: 400.0 mg/kg/injection, schedule: Q01DX009 (ip), vehicle: saline with Tween-80, higher = longer survival) is 95 % of control; the T/C (endpoint: median survival time, dose: 800.0 mg/kg/injection, schedule: Q01DX009 (ip), vehicle: saline with Tween-80, higher = longer survival) was 110 % of control; the T/C (endpoint: median tumor weight (est.), dose: 100.0 mg/kg/injection, schedule: Q01DX009 (ip), vehicle: saline with Tween-80, higher = larger tumour) was 100 % of control; the T/C (endpoint: median tumor weight (est.), dose: 200.0 mg/kg/injection, schedule: Q01DX009 (ip), vehicle: saline with Tween-80, higher = larger tumour) is 103 % of control. Moreover, the T/C (endpoint: median tumor weight (est.), dose: 400.0 mg/kg/injection, schedule: Q01DX009 (ip), vehicle: saline with Tween-80, higher = larger tumour) was 97 % of control and the T/C (endpoint: median tumor weight (est.), dose: 800.0 mg/kg/injection, schedule: Q01DX009 (ip), vehicle: saline with Tween-80, higher = larger tumour) was 91 % of control.

For the compound `C[C@H]1CC[C@@]2(NC1)O[C@H]1C[C@H]3[C@@H]4CC[C@H]5C[C@@H](O)CC[C@]5(C)[C@H]4CC[C@]3(C)[C@H]1[C@@H]2C`, the T/C runs as follows: (endpoint: mean tumor weight, dose: 3.13 mg/kg/injection, schedule: Q01DX011 (sc), vehicle: steriod suspending solution, higher = larger tumour) 83 % of control; (endpoint: mean tumor weight, dose: 6.25 mg/kg/injection, schedule: Q01DX011 (sc), vehicle: steriod suspending solution, higher = larger tumour) 108 % of control; (endpoint: mean tumor weight, dose: 12.5 mg/kg/injection, schedule: Q01DX011 (sc), vehicle: steriod suspending solution, higher = larger tumour) 96 % of control; (endpoint: mean tumor weight, dose: 25.0 mg/kg/injection, schedule: Q01DX011 (sc), vehicle: steriod suspending solution, higher = larger tumour) 96 % of control and 105 % of control; (endpoint: mean tumor weight, dose: 50.0 mg/kg/injection, schedule: Q01DX011 (sc), vehicle: steriod suspending solution, higher = larger tumour) 119 % of control; (endpoint: mean tumor weight, dose: 100.0 mg/kg/injection, schedule: Q01DX011 (sc), vehicle: steriod suspending solution, higher = larger tumour) 117 % of control. Also, the T/C was 110 % of control (endpoint: mean tumor weight, dose: 200.0 mg/kg/injection, schedule: Q01DX011 (sc), vehicle: steriod suspending solution, higher = larger tumour) and 93 % of control (endpoint: mean tumor weight, dose: 400.0 mg/kg/injection, schedule: Q01DX011 (sc), vehicle: steriod suspending solution, higher = larger tumour).
